Results: patent publication US8106048B2, “Heterocyclic NF-κB inhibitors” (4SC AG, priority 2004, dated 2012)

system: A549-NF-κB-SEAP reporter cells; assay: Inhibition of NF-κB-induced inflammation: […] NINA Instant Assay, TNF-α stimulated SEAP reporter; assay type: cell-based; details: % inhibition classes
Description: For the determination of anti-inflammatory activity of the compounds the […]® NINA Instant Assay from Cell Culture Service GmBH was used. This assay is based on […] recombinant A549-NF-κB-SEAP reporter cells preceded in 96-well flat bottom plates. As the transfected reportergen for SEAP (secreted embryonic alkaline phosphatase) is under transcriptional control of a NF-κB-responsive element, the expression of this reporter is activated upon stimulation with TNF-α. SEAP secretion into the culture supernatant can be detected by the chemiluminescent substrate CSPD®. Test compounds that inhibit the NF-κB activation show reduced SEAP activity and reduced luminescent readout.
Following 18 h of reactivation at 37° C., 5% CO2 and 90% relative humidity, the cells were incubated with 0.01 up to 100 μM of test compound for 4.5 h before stimulation with 2 ng/ml TNF-α. After stimulation with TNF-α for 22 h endogenous phosphatases were inactivated and CSPD® substrate was supplied for 40 min. SEAP activity then was quantified by measuring luminescence as relative light units (RLU) using a Tecan Ultra reader. Each data point was recorded in quadruplicates and EC50 values were calculated via fitting function and the Microsoft Excel Solver.

| SMILES | Biological activity (inhibition in the NF-κB inflammation assay) |
| --- | --- |
| COc1cc2c(cc1OC)CN(C(=O)c1csc(C3CCN(C(=O)Cc4ccc(F)cc4)CC3)n1)C(C)C2 (centres unmarked) [compound 232] | + (“+” stands for 50-80% inhibition) |
| COc1cc2c(cc1OC)CN(C(=O)c1csc(C3CCN(C(=O)Cc4ccc(F)cc4)CC3)n1)CC2 [compound 161] | + (“+” stands for 50-80% inhibition) |
| COc1ccc(Cl)cc1S(=O)(=O)N1CCC(c2nc(C(=O)N3CCN(c4cccc(C(F)(F)F)c4)CC3)cs2)CC1 [compound 202] | ++ (“++” means 80-90%) |
| O=C(CCC1CCCC1)NCC1CCN(c2nc(C(=O)N3CCN(c4cccc(C(F)(F)F)c4)CC3)cs2)CC1 [compound 100] | + (“+” stands for 50-80% inhibition) |
| COc1nc(OC)nc(N2CCN(C(=O)c3csc(C4CCNCC4)n3)CC2)n1 [compound 152] | ++ (“++” means 80-90%) |
| COc1cccc(N2CCC(c3nc(C(=O)N4CCN(c5cccc(C(F)(F)F)c5)CC4)cs3)CC2)c1 [compound 178] | + (“+” stands for 50-80% inhibition) |
| N#CC1(c2ccccc2)CCN(C(=O)c2csc(C3CCN(C(=O)Cc4ccc(F)cc4)CC3)n2)CC1 [compound 228] | + (“+” stands for 50-80% inhibition) |
| O=C(Nc1nc(C(=O)N2CCN(c3cccc(C(F)(F)F)c3)CC2)cs1)c1ccc(C(F)(F)F)c(F)c1 [compound 34] | +++ (“+++” stands for 90-100% inhibition) |
| O=C(O)C=CC(=O)N1CCC(c2nc(C(=O)N3CCN(c4cccc(C(F)(F)F)c4)CC3)cs2)CC1 [compound 191] | + (“+” stands for 50-80% inhibition) |
| O=C(c1csc(C2CCN(S(=O)(=O)c3ccccc3)CC2)n1)N1CCN(c2cccc(C(F)(F)F)c2)CC1 [compound 208] | + (“+” stands for 50-80% inhibition) |
| O=C(CCC1CCCC1)Nc1nc(C(=O)N2CCN(c3cccc(C(F)(F)F)c3)CC2)cs1 [compound 33] | +++ (“+++” stands for 90-100% inhibition) |
| O=C(c1csc(C2CCN(Cc3ccccc3Br)CC2)n1)N1CCN(c2cccc(C(F)(F)F)c2)CC1 [compound 165] | + (“+” stands for 50-80% inhibition) |
| O=C(CCC1CCCC1)N1CCC(c2nc(C(=O)N3CCN(c4cccc(C(F)(F)F)c4)CC3)cs2)CC1 [compound 224] | + (“+” stands for 50-80% inhibition) |
| N#Cc1ccc(CN2CCC(c3nc(C(=O)N4CCN(c5cccc(C(F)(F)F)c5)CC4)cs3)CC2)cc1 [compound 166] | + (“+” stands for 50-80% inhibition) |
| O=C(c1csc(N2CCNCC2)n1)N1CCN(c2cccc(C(F)(F)F)c2)CC1 [compound 64] | + (“+” stands for 50-80% inhibition) |
| O=C(c1csc(C2CCN(Cc3ccc(F)cc3Cl)CC2)n1)N1CCN(c2cccc(C(F)(F)F)c2)CC1 [compound 171] | + (“+” stands for 50-80% inhibition) |
| O=C(c1csc(C2CCN(S(=O)(=O)c3ccc(Cl)cc3)CC2)n1)N1CCN(c2cccc(C(F)(F)F)c2)CC1 [compound 206] | + (“+” stands for 50-80% inhibition) |
| O=C(c1csc(C2CCN(C(=O)c3ccccc3OC(F)(F)F)CC2)n1)N(CCO)Cc1ccccc1 [compound 148] | ++ (“++” means 80-90%) |
| Cc1cc2nc(NC(=O)c3csc(C4CCN(C(=O)c5ccccc5OC(F)(F)F)CC4)n3)[nH]c2cc1C [compound 133] | +++ (“+++” stands for 90-100% inhibition) |
| Cc1nnsc1C(=O)N1CCC(c2nc(C(=O)N3CCN(c4cccc(C(F)(F)F)c4)CC3)cs2)CC1 [compound 221] | + (“+” stands for 50-80% inhibition) |
| Cc1noc(C)c1S(=O)(=O)N1CCC(c2nc(C(=O)N3CCN(c4cccc(C(F)(F)F)c4)CC3)cs2)CC1 [compound 192] | + (“+” stands for 50-80% inhibition) |
| COc1nc(OC)nc(N2CCN(C(=O)c3csc(C4CCN(C(=O)Cc5ccc(F)cc5)CC4)n3)CC2)n1 [compound 126] | + (“+” stands for 50-80% inhibition) |
| O=C(O)C1=C(C(=O)N2CCC(c3nc(C(=O)N4CCN(c5cccc(C(F)(F)F)c5)CC4)cs3)CC2)CCC1 [compound 188] | + (“+” stands for 50-80% inhibition) |
| O=C(c1csc(C2CCN(Cc3ccc(OC(F)(F)F)cc3)CC2)n1)N1CCN(c2cccc(C(F)(F)F)c2)CC1 [compound 172] | + (“+” stands for 50-80% inhibition) |

| SMILES | Biological activity (inhibition in the NF-κB inflammation assay) |
| --- | --- |
| O=C(c1csc(N2CCN(C(=O)c3ccccc3OC(F)(F)F)CC2)n1)N1CCN(c2cccc(C(F)(F)F)c2)CC1 [compound 39] | +++ (“+++” stands for 90-100% inhibition) |
| O=C(Nc1nc(C(=O)N2CCN(c3cccc(C(F)(F)F)c3)CC2)cs1)c1ccccc1OC(F)(F)F [compound 32] | +++ (“+++” stands for 90-100% inhibition) |
| COc1nc(OC)nc(N2CCN(C(=O)c3csc(C4CCN(Cc5ccc(Br)cc5)CC4)n3)CC2)n1 [compound 121] | + (“+” stands for 50-80% inhibition) |
| O=C(Nc1ccc2c(c1)OCCO2)N1CCC(c2nc(C(=O)N3CCN(c4cccc(C(F)(F)F)c4)CC3)cs2)CC1 [compound 136] | + (“+” stands for 50-80% inhibition) |
| O=C(c1csc(C2CCN(c3cc(C(F)(F)F)ccn3)CC2)n1)N1CCN(c2cccc(C(F)(F)F)c2)CC1 [compound 118] | + (“+” stands for 50-80% inhibition) |
| O=C(c1csc(C2CCN(c3ccc(C(F)(F)F)cc3)CC2)n1)N1CCN(c2cccc(C(F)(F)F)c2)CC1 [compound 155] | + (“+” stands for 50-80% inhibition) |
| COc1ccccc1C(=O)N1CCN(c2nc(C(=O)N3CCN(c4cccc(C(F)(F)F)c4)CC3)cs2)CC1 [compound 38] | +++ (“+++” stands for 90-100% inhibition) |
| O=C(c1csc(C2CCN(S(=O)(=O)c3ccc(OC(F)(F)F)cc3)CC2)n1)N1CCN(c2cccc(C(F)(F)F)c2)CC1 [compound 205] | + (“+” stands for 50-80% inhibition) |
| Cc1cc(NC(=O)N2CCC(c3nc(C(=O)N4CCN(c5cccc(C(F)(F)F)c5)CC4)cs3)CC2)c(C(F)(F)F)o1 [compound 137] | + (“+” stands for 50-80% inhibition) |
| O=C(O)C1CCCCC1C(=O)N1CCC(c2nc(C(=O)N3CCN(c4cccc(C(F)(F)F)c4)CC3)cs2)CC1 (centres unmarked) [compound 189] | + (“+” stands for 50-80% inhibition) |
| O=C(O)c1cccnc1C(=O)N1CCC(c2nc(C(=O)N3CCN(c4cccc(C(F)(F)F)c4)CC3)cs2)CC1 [compound 183] | + (“+” stands for 50-80% inhibition) |
| O=C(O)c1ccc(C(=O)O)c(C(=O)N2CCC(c3nc(C(=O)N4CCN(c5cccc(C(F)(F)F)c5)CC4)cs3)CC2)c1 [compound 184] | + (“+” stands for 50-80% inhibition) |
| N#Cc1ccc(C(=O)NCC2CCN(c3nc(C(=O)N4CCN(c5cccc(C(F)(F)F)c5)CC4)cs3)CC2)cc1 [compound 102] | + (“+” stands for 50-80% inhibition) |
| O=C(Nc1nc(C(=O)N2CCN(C(c3ccccc3)c3ccccc3)CC2)cs1)c1ccccc1OC(F)(F)F [compound 58] | ++ (“++” means 80-90%) |
| NC(=Nc1nc2ccccc2[nH]1)NC(=O)c1csc(NC(=O)c2ccccc2OC(F)(F)F)n1 [compound 82] | +++ (“+++” stands for 90-100% inhibition) |
| CNc1ccc(Cl)cc1C1c2ccccc2CCN1C(=O)c1csc(C2CCN(C(=O)c3ccccc3OC(F)(F)F)CC2)n1 (centres unmarked) [compound 150] | ++ (“++” means 80-90%) |
| O=C(Nc1ccc2c(c1)OCCO2)N1CCC(c2nc(C(=O)N3CCN(c4cccc(C(F)(F)F)c4)CC3)cs2)CC1 [compound 75] | ++ (“++” means 80-90%) |
| CN(C)c1cccc(C(=O)N2CCC(c3nc(C(=O)N4CCN(c5cccc(C(F)(F)F)c5)CC4)cs3)CC2)c1 [compound 226] | ++ (“++” means 80-90%) |
| O=C(O)N1CCC(c2nc(C(=O)N3CCN(c4cccc(C(F)(F)F)c4)CC3)cs2)CC1 [compound 113] | + (“+” stands for 50-80% inhibition) |
| O=C(c1csc(C2CCN(Cc3ccc(C(F)(F)F)cc3)CC2)n1)N1CCN(c2cccc(C(F)(F)F)c2)CC1 [compound 169] | + (“+” stands for 50-80% inhibition) |
| COc1cccc(CN2CCC(c3nc(C(=O)N4CCN(c5cccc(C(F)(F)F)c5)CC4)cs3)CC2)c1 [compound 173] | + (“+” stands for 50-80% inhibition) |
| COc1cccc(C(=O)N2CCC(c3nc(C(=O)N4CCN(c5cccc(C(F)(F)F)c5)CC4)cs3)CC2)c1 [compound 209] | + (“+” stands for 50-80% inhibition) |
| O=C(c1csc(C2CCN(Cc3ccncc3)CC2)n1)N1CCN(c2cccc(C(F)(F)F)c2)CC1 [compound 107] | + (“+” stands for 50-80% inhibition) |
